Bounds are passed on as bounds.

The source of these data is patent US11919887B2, “Substituted tetrahydrofurans as modulators of sodium channels” (Vertex Pharmaceuticals Incorporated, priority 2019, dated 2024).

For the first assay, the target named is human Nav 1.8 (Homo sapiens, UniProt Q9Y5Y9). The experiment in a line: E-VIPR assay detecting and measuring Nav inhibition (HEK cells expressing truncated human Nav 1.8). The format is cell-based. The settings on record: in the Absence of Human Serum in the E-VIPR Assay. Put shortly: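 HEK cells expressing truncated human Nav1.8, transduced with KIR2.1 BacMam, were loaded with CC2-DMPE/DiSBAC6(3) FRET dyes and tested under electrical stimulation (E-VIPR). Compounds were run as 11-point 3-fold dilutions, top 300 nM final, 0.625% DMSO, with or without 25% human serum.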
Chain of human Nav 1.8 (Q9Y5Y9 whole entry, looked up, the tested form may be a part): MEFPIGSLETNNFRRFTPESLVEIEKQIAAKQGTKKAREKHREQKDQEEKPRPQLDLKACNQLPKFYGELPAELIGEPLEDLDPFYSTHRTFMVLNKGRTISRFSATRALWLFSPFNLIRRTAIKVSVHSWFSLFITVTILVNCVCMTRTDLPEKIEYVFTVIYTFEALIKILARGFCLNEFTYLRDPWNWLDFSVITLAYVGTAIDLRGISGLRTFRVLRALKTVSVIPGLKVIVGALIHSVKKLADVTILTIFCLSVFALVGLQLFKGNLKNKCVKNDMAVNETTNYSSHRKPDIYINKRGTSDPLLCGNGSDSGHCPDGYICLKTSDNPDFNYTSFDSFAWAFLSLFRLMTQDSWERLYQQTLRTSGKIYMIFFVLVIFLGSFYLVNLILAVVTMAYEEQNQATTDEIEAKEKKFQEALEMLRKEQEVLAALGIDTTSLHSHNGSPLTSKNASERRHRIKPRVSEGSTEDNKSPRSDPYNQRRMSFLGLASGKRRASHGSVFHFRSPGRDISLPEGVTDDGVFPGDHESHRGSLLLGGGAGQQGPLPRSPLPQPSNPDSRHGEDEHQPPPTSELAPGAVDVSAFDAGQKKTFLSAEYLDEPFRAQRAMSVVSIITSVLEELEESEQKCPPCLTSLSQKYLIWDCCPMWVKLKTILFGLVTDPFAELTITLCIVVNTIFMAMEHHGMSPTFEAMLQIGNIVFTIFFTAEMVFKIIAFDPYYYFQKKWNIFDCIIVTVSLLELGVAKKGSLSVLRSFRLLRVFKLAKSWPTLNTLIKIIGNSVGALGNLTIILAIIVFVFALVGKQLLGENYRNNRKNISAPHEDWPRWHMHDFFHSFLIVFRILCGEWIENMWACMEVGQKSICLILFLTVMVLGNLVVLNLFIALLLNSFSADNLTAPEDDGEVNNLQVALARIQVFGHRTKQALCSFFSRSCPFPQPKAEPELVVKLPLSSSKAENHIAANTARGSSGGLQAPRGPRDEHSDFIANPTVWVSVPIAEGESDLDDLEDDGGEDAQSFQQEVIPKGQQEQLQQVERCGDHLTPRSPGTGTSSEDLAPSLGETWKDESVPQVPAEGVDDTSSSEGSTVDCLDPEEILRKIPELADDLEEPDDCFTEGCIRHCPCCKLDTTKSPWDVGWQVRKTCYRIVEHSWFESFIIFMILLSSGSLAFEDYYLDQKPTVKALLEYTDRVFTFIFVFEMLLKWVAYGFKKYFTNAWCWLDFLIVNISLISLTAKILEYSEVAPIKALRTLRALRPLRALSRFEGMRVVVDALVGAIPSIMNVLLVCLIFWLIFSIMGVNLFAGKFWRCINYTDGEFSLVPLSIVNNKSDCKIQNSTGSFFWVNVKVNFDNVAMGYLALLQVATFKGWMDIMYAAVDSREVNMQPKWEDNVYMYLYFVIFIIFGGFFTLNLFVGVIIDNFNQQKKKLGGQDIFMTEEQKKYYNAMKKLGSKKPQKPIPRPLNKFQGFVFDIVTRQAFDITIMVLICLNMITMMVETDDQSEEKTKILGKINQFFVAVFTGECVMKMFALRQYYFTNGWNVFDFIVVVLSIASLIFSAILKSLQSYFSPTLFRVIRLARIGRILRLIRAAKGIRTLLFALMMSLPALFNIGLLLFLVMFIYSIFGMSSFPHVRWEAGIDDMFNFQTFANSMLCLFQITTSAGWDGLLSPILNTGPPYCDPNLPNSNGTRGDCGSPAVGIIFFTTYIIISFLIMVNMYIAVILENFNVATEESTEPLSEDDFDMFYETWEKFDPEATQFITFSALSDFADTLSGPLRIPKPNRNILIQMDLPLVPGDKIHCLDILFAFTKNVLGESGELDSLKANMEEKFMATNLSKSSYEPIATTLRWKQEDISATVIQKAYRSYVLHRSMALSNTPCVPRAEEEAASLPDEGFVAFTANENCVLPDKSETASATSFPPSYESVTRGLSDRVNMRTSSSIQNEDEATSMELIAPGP
`[2H]c1cnc(C(N)=O)cc1NC(=O)[C@@H]1O[C@@](C)(C(F)(F)F)[C@@H](C)[C@H]1c1ccc(F)c(F)c1OC` [Compound 124, 5-deuterio-4-[[(2R,3S,4S,5R)-3-(3,4-difluoro-2-methoxy-phenyl)-4,5-dimethyl-5-(trifluoromethyl)tetrahydrofuran-2-carbonyl]amino]pyridine-2-carboxamide] displayed a concentration for half-maximal inhibition (IC50) of under 10 nM.

The same assay, now with this note: in the Absence of Human Serum in the E-VIPR Assay; read-out: IC50.
Regarding `COc1nc(C(F)F)ccc1[C@H]1[C@H](C(=O)Nc2ccnc(C(N)=O)c2)O[C@@](C)(C(F)(F)F)[C@H]1C` (stereo in doubt) [Compound 140, rel-(2R,3S,4S,5R)-4-[[3-[6-(difluoromethyl)-2-methoxy-3-pyridyl]-4,5-dimethyl-5-(trifluoromethyl)tetrahydrofuran-2-carbonyl]amino]pyridine-2-carboxamide], the 50% inhibitory concentration (IC50) fell in the range of 10 to 100 nM.
The same measure, in the same setting: then `COc1c([C@H]2[C@H](C(=O)Nc3cc(C(N)=O)ccn3)O[C@@](C)(C(F)(F)F)[C@H]2C)ccc(F)c1F` [Compound 120, 2-[[(2R,3S,4S,5R)-3-(3,4-difluoro-2-methoxy-phenyl)-4,5-dimethyl-5-(trifluoromethyl)tetrahydrofuran-2-carbonyl]amino]pyridine-4-carboxamide], with 10 to 100 nM.
Same read-out and setting: then `COc1c([C@H]2[C@H](C(=O)Nc3ccnc(C(N)=O)c3F)O[C@@](C)(C(F)(F)F)[C@H]2C)ccc(F)c1F` [Compound 126, 4-[[(2R,3S,4S,5R)-3-(3,4-difluoro-2-methoxy-phenyl)-4,5-dimethyl-5-(trifluoromethyl)tetrahydrofuran-2-carbonyl]amino]-3-fluoro-pyridine-2-carboxamide], with under 10 nM.

Still in this assay, the particulars now being: in the Presence of Human Serum in the E-VIPR Assay; read-out: IC50.
For `CCOc1c([C@@H]2[C@@H](C(=O)Nc3ccnc(C(N)=O)c3)O[C@](C)(C(F)(F)F)[C@@H]2C)ccc(F)c1F` [Compound 8, (2S,3R,4R,5S)-4-[[3-(2-ethoxy-3,4-difluoro-phenyl)-4,5-dimethyl-5-(trifluoromethyl)tetrahydrofuran-2-carbonyl]amino]pyridine-2-carboxamide], the half-maximal inhibitory concentration (IC50) was over 1000 nM.
Same read-out and setting: the figure for `COc1cc(F)ccc1[C@@H]1C[C@](C)(C(F)(F)F)O[C@@H]1C(=O)Nc1ccnc(C(N)=O)c1` (relative stereo) [Compound 70, rel-(2S,3S,5R)-4-[[3-(4-fluoro-2-methoxy-phenyl)-5-methyl-5-(trifluoromethyl)tetrahydrofuran-2-carbonyl]amino]pyridine-2-carboxamide] is over 1000 nM.
`COc1c([C@@H]2C[C@H](C(C)(C)C)O[C@H]2C(=O)Nc2ccnc(C(N)=O)c2)ccc(F)c1F` (single isomer, unassigned) [Compound 66]: the half-maximal inhibitory concentration (IC50) lay in the range of 100 to 1000 nM.
Turning to `C[C@@]1(C(F)(F)F)C[C@H](c2ccc(F)cc2OC(F)F)[C@@H](C(=O)Nc2ccnc(C(N)=O)c2)O1` [compound 73], the half-inhibitory concentration (IC50) was over 1000 nM.
Still for that read-out and setting: the figure for `CNC(=O)c1cc(NC(=O)[C@H]2O[C@@](C)(C(F)(F)F)[C@H](C)[C@@H]2c2ccc(F)c(F)c2OC(F)F)ccn1` (stereo in doubt) [Compound 13, rel-(2S,3R,4R,5R)-4-[[3-[2-(difluoromethoxy)-3,4-difluoro-phenyl]-4,5-dimethyl-5-(trifluoromethyl)tetrahydrofuran-2-carbonyl]amino]-N-methyl-pyridine-2-carboxamide] is 10 to 100 nM.
Still for that read-out and setting: then `C[C@H]1[C@@H](c2ccc(F)c(F)c2OC(F)F)[C@H](C(=O)Nc2cc[n+]([O-])c(C(N)=O)c2)O[C@@]1(C)C(F)(F)F` [Compound 18, (2R,3S,4S,5R)-4-[[3-[2-(difluoromethoxy)-3,4-difluoro-phenyl]-4,5-dimethyl-5-(trifluoromethyl)tetrahydrofuran-2-carbonyl]amino]-1-oxido-pyridin-1-ium-2-carboxamide], with under 10 nM; and `COc1c([C@H]2C[C@@](C)(C(C)(F)F)O[C@@H]2C(=O)Nc2ccnc(C(N)=O)c2)ccc(F)c1F` (single isomer, unassigned) [Compound 85], with over 1000 nM; and `COc1c([C@@H]2[C@@H](C(=O)Nc3ccnc(C(N)=O)c3)OC(C)(C)[C@H]2C)ccc(F)c1F` (single isomer, unassigned) [Compound 101], with over 1000 nM.
For `COc1c([C@H]2[C@@H](C)[C@@H](C)O[C@@H]2C(=O)Nc2ccnc(C(N)=O)c2)ccc(F)c1F` (stereo in doubt) [Compound 107, rel-(2S,3R,4R,5R)-4-[[3-(3,4-difluoro-2-methoxy-phenyl)-4,5-dimethyl-tetrahydrofuran-2-carbonyl]amino]pyridine-2-carboxamide], the half-maximal inhibitory concentration (IC50) was over 1000 nM.
The same measure, in the same setting: the figure for `C[C@H]1[C@@H](c2ccc(F)c(F)c2O)[C@H](C(=O)Nc2ccnc(C(N)=O)c2)O[C@@]1(C)C(F)(F)F` [Compound 27, (2R,3S,4S,5R)-4-[[3-(3,4-difluoro-2-hydroxy-phenyl)-4,5-dimethyl-5-(trifluoromethyl)tetrahydrofuran-2-carbonyl]amino]pyridine-2-carboxamide] is 10 to 100 nM; for `COc1cc(F)ccc1[C@@H]1[C@@H](C(=O)Nc2ccnc(C(N)=O)c2)O[C@@](C)(C(F)(F)F)[C@@H]1C` (single isomer, unassigned) [Compound 41] it is 10 to 100 nM; for `COc1c([C@@H]2C[C@](C)(C(F)(F)F)O[C@H]2C(=O)Nc2ccc(F)c(C(N)=O)c2)ccc(F)c1F` (single isomer, unassigned) [Compound 47] it is 10 to 100 nM.
Same read-out and setting: then `C[C@@H]1[C@H](c2ccc(F)cc2OC(F)F)[C@@H](C(=O)Nc2ccnc(C(N)=O)c2)O[C@@]1(C)C(F)(F)F` (racemic) [compound 28], with 10 to 100 nM.
Same read-out and setting: then `COc1c([C@@H]2C[C@@](C)(C(F)(F)F)O[C@H]2C(=O)Nc2ccnc(C(N)=O)c2)ccc(F)c1Cl` [Compound 23, (2R,3S,5S)-4-[[3-(3-chloro-4-fluoro-2-methoxy-phenyl)-5-methyl-5-(trifluoromethyl)tetrahydrofuran-2-carbonyl]amino]pyridine-2-carboxamide], with 10 to 100 nM; and `C[C@@H]1[C@H](c2ccc(F)c(F)c2OC(F)F)[C@@H](C(=O)Nc2cccc(C(N)=O)c2)O[C@]1(C)C(F)(F)F` (single isomer, unassigned) [compound 51], with over 1000 nM; and `COc1c([C@H]2C[C@@](C)(C(F)(F)F)O[C@@H]2C(=O)Nc2ccnc(C(N)=O)c2)ccc(F)c1Cl` (relative stereo) [Compound 20, rel-(2S,3R,5S)-4-[[3-(3-chloro-4-fluoro-2-methoxy-phenyl)-5-methyl-5-(trifluoromethyl)tetrahydrofuran-2-carbonyl]amino]pyridine-2-carboxamide], with over 1000 nM.
Regarding `COc1cc(F)ccc1[C@@H]1[C@@H](C)[C@](C)(C(F)(F)F)O[C@H]1C(=O)Nc1ccnc(C(N)=O)c1` (single isomer, unassigned) [Compound 39], the IC50 is 100 to 1000 nM.
`Cc1cnc(C(N)=O)cc1NC(=O)[C@@H]1O[C@@](C)(C(F)(F)F)[C@@H](C)[C@H]1c1ccc(F)c(F)c1OC(F)F` (stereo in doubt) [Compound 150, rel-(2R,3S,4S,5R)-4-[[3-[2-(difluoromethoxy)-3,4-difluoro-phenyl]-4,5-dimethyl-5-(trifluoromethyl)tetrahydrofuran-2-carbonyl]amino]-5-methyl-pyridine-2-carboxamide]: the half-inhibitory concentration (IC50) was over 1000 nM.
Take `COc1c([C@@H]2C[C@](C)(C(F)(F)F)O[C@H]2C(=O)Nc2ccnc(C(N)=O)c2)ccc(F)c1C` (single isomer, unassigned) [Compound 72]: the 50% inhibitory concentration (IC50) was 10 to 100 nM.
